US20060167115A1, “Compositions for the preservation of timber” (priority 2003, published 2006)

What was measured:
Assay in all cases: Biological efficacy test (ASTM D1413-76), soil block medium
Format in all cases: cell-based
[1] = system: Gloeophyllum trabeum
Procedure: (§1) The following fungi were tested: Neo-Lentinus lepideus (Brown rot fungus), Poria placenta (Brown rot fungus) and Gloeophyllum trabeum (Brown rot fungus). The preservative used was TBBA (waterborne). Seven concentrations of the preservative was used: 3.0%, 2.0%, 1.5%, 1.0%, 0.5%, 0.05% and 0.0% (w/w), i.e. the carrier solution in the absence of the preservative. All wood blocks were of Scots pine sapwood (Pinus sylvestris) with an approximate volume of 6.86 cm^3 (19 mm×19 mm×19 mm). All wood block specimens, where applicable, were vacuum impregnated with the preservative concentrations according to American standard ASTM D1413-76. • Treated test specimens: 3 (fungi)×7 (preservative concentrations)×1 (preservative)×8 (replicates)=168 test blocks • Untreated test specimens (control): 3 (fungi)×1 (preservative)×4 (replicates)=12 test blocks
(§2) After block treatments were completed, all the blocks were sterilized using ionizing radiation according to the conditions set out in American standard ASTM D1413-76. The incubation period for the test was 12 weeks.

[2] = system: Neo-Lentinus lepideus
Procedure: as §1, §2

[3] = system: Poria placenta
Procedure: as §1, §2

[4] = TBBA waterborne 0.05% w/w, retention 0.38 kg/m^3, 12 weeks
[5] = TBBA waterborne 0.5% w/w, retention 3.86 kg/m^3, 12 weeks

CC(C)(c1cc(Br)c(O)c(Br)c1)c1cc(Br)c(O)c(Br)c1 [TBBA, Tetrabromobisphenol A]
Corrected mean loss in mass (%) [1, 4]: 42.71 (13.14) %
Corrected mean loss in mass (%) ([1]; TBBA waterborne 0.5% w/w, retention 3.87 kg/m^3, 12 weeks): 45.02 (7.20) %
Corrected mean loss in mass (%) ([1]; TBBA waterborne 1.0% w/w, retention 7.73 kg/m^3, 12 weeks): 5.52 (8.99) %
Corrected mean loss in mass (%) ([1]; TBBA waterborne 1.5% w/w, retention 11.75 kg/m^3, 12 weeks): 2.232 (4.66) %
Corrected mean loss in mass (%) ([1]; TBBA waterborne 2.0% w/w, retention 15.62 kg/m^3, 12 weeks): 0.29 (0.25) %
Corrected mean loss in mass (%) ([1]; TBBA waterborne 3.0% w/w, retention 23.02 kg/m^3, 12 weeks): 0.13 (0.26) %
Corrected mean loss in mass (%) ([2]; TBBA waterborne 0.05% w/w, retention 0.40 kg/m^3, 12 weeks): 31.44 (5.65) %
Corrected mean loss in mass (%) [2, 5]: 4.55 (16.26) %
Corrected mean loss in mass (%) ([2]; TBBA waterborne 1.0% w/w, retention 7.62 kg/m^3, 12 weeks): 0.36 (0.19) %
Corrected mean loss in mass (%) ([2]; TBBA waterborne 1.5% w/w, retention 11.61 kg/m^3, 12 weeks): 0.04 (0.09) %
Corrected mean loss in mass (%) ([2]; TBBA waterborne 2.0% w/w, retention 15.51 kg/m^3, 12 weeks): 0.04 (0.20) %
Corrected mean loss in mass (%) ([2]; TBBA waterborne 3.0% w/w, retention 23.79 kg/m^3, 12 weeks): 0.11 (0.38) %
Corrected mean loss in mass (%) [3, 4]: 31.70 (9.88) %
Corrected mean loss in mass (%) [3, 5]: 30.27 (5.59) %
Corrected mean loss in mass (%) ([3]; TBBA waterborne 1.0% w/w, retention 7.81 kg/m^3, 12 weeks): 9.65 (18.03) %
Corrected mean loss in mass (%) ([3]; TBBA waterborne 1.5% w/w, retention 11.57 kg/m^3, 12 weeks): −0.12 (0.28) %
Corrected mean loss in mass (%) ([3]; TBBA waterborne 2.0% w/w, retention 15.72 kg/m^3, 12 weeks): −0.29 (0.26) %
Corrected mean loss in mass (%) ([3]; TBBA waterborne 3.0% w/w, retention 23.22 kg/m^3, 12 weeks): −0.71 (0.14) %
